Data published in patent US12692274B2, “Tetrahydroisoquinoline derivatives for the treatment of red blood disorders and inflammatory diseases” (Sanofi, priority 2020, dated 2026).
Several values for one entry are separate records, joined by “and”; a condition that tells them apart may be missing. Equal values may be shown once.

Legend:
[1] = biological target: HIS-Keap1 full length / Biotin-Nrf2 (16-mer) (Homo sapiens, UniProt Q14145); assay: biochemical
[2] = tested on: NQO1 activation in BEAS-2B cells; assay: BEAS-2B cellular MTT assay of NQO1 activation, 0.3% HSA; type: cell-based
In short: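 BEAS-2B cells (<70% confluent in culture, BEBM/SingleQuots without GA-1000) seeded in collagen plates with 0.3% or 0% HSA, reaching 95-100% confluency after 48 h at 37 °C, 5% CO2; MTT read-out.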

[3] = tested on: NQO1 activation in BEAS-2B cells; assay: BEAS-2B cellular MTT assay of NQO1 activation, 0% HSA; type: cell-based
In short: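 BEAS-2B cells grown in BEBM with BEGM SingleQuots (no GA-1000), kept below 70% confluence, seeded on collagen plates at a density giving 95-100% confluence after 48 h. Plates seeded in medium without HSA (0% HSA condition).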

[4] = Homo sapiens, BEAS+ W, read-out: BEAS+ W EC50
[5] = Homo sapiens, Serum Free W, read-out: BEAS EC50 (nM) Serum Free W
[6] = Homo sapiens, BEAS+, read-out: BEAS+ EC50
[7] = Homo sapiens, serum free, read-out: BEAS EC50 (nM) serum free
[8] = BEAS+ W, read-out: BEAS+ W EC50
[9] = Serum Free W, read-out: BEAS EC50 (nM) Serum Free W
[10] = serum free, read-out: BEAS EC50 (nM) serum free

Chain of HIS-Keap1 full length / Biotin-Nrf2 (16-mer) (Q14145 whole entry): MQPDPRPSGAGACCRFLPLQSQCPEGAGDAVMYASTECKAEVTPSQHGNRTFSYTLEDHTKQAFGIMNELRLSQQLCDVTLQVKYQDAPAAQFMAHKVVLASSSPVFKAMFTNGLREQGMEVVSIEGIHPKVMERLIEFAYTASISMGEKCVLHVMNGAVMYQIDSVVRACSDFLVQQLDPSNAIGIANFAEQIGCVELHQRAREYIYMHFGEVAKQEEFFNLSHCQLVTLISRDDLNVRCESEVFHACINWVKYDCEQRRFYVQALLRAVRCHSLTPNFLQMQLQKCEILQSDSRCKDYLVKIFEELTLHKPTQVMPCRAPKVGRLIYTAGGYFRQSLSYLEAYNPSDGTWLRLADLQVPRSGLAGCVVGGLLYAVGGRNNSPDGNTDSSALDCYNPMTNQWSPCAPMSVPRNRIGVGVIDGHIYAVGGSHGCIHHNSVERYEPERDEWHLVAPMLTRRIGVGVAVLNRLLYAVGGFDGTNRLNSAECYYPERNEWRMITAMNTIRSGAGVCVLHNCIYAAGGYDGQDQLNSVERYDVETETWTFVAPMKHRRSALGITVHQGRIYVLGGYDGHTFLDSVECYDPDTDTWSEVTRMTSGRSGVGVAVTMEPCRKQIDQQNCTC

## O=C(O)C[C@H]1c2cnc(nc2)OCC/C=C/Cc2c(F)c(F)c(c(F)c2F)C(=O)N2CCc3ccc1cc3C2 [Compound 35]
[1]
  IC50: 840 nM and 662 nM
[2]; [4]
  EC50: > 10000 nM
[3]; [5]
  EC50: > 1000 nM

## Cc1c2ccc3c1nnn3CCCCCCOc1ccc(cc1)C(=O)N1CCc3ccc(cc3C1)[C@H]2[C@@H](C)C(=O)O [Compound 155]
[1]
  IC50: 734 nM and 514 nM
[2]; [6]
  EC50: > 10000 nM
[3]; [7]
  EC50: > 10000 nM

## O=C(O)CC1c2ccc3c(c2)CN(CC3)C(=O)c2ccc(cc2F)OCCCCCCn2nnc3cc1ccc32 (stereo not shown) [Compound 322]
[1]
  IC50: 0.8 nM and 1 nM
[2]; [6]
  EC50: 231 nM
[3]; [7]
  EC50: 176 nM

## Cc1cc2ccc1C(=O)N1CCc3ccc(cc3C1)[C@@H]([C@H](C)C(=O)O)c1ccc3c(c1)nnn3CCCCCCO2 [Compound 294]
[1]
  IC50: 22.1 nM and 17.3 nM
[2]; [6]
  EC50: 809 nM
[3]; [7]
  EC50: 450 nM

## COc1cc2ccc1CCCCCCn1nnc3c(C)c(cnc31)C(CC(=O)O)c1ccc3c(c1)CN(CC3)C2=O (stereo not shown) [Compound 104]
[1]
  IC50: 0.2 nM and 0.3 nM and 1.7 nM and 1.6 nM
[2]; [8]
  EC50: 130 nM
[2]; BEAS+, read-out: BEAS+ EC50
  EC50: 19.2 nM
[2]; [4]
  EC50: 147 nM
[2]; [6]
  EC50: 16.4 nM
[3]; [5]
  EC50: 30 nM
[3]; [7]
  EC50: 9.3 nM
[3]; [9]
  EC50: 36.5 nM
[3]; [10]
  EC50: 7.4 nM

## O=C(O)CC1c2ccc(cc2)OCCCCCc2ccc(cc2)C(=O)N2CCc3ccc1cc3C2 (stereo not shown) [Compound 396]
[1]
  IC50: 94.7 nM and 138 nM
[2]; BEAS+, read-out: BEAS+ EC50
  EC50: 176 nM
[2]; [6]
  EC50: 204 nM
[3]; [7]
  EC50: 80.5 nM
[3]; [10]
  EC50: 78.2 nM

## Cc1cc2ncc1[C@@H](CC(=O)O)c1ccc3c(c1)CN(CC3)C(=O)c1ccc(cc1)COCCCO2 [Compound 81]
[1]
  IC50: 251 nM and 220 nM
[2]; [8]
  EC50: 1950 nM
[2]; [4]
  EC50: 2160 nM
[3]; [5]
  EC50: > 1000 nM
[3]; [9]
  EC50: 1840 nM

## Cc1c2ccc3c1nnn3C/C=C/COCc1ccc(c(F)c1)C(=O)N1CCc3ccc(cc3C1)C2CC(=O)O (stereo not shown) [Compound 386]
[1]
  IC50: 1.9 nM and 2 nM
[2]; BEAS+, read-out: BEAS+ EC50
  EC50: 105 nM
[2]; [6]
  EC50: 123 nM
[3]; [7]
  EC50: 90.3 nM
[3]; [10]
  EC50: 89 nM

## Cc1cc2ccc1C(=O)N1CCc3ccc(cc3C1)[C@H]([C@@H](C)C(=O)O)c1ccc3c(nnn3CCCOCCO2)c1C [Compound 371]
[1]
  IC50: 1.6 nM and 1.7 nM
[2]; BEAS+, read-out: BEAS+ EC50
  EC50: 28.8 nM
[2]; [6]
  EC50: 23.6 nM
[3]; [7]
  EC50: 21.3 nM
[3]; [10]
  EC50: 22.1 nM

## COc1cc2ccc1CCCCCn1nnc3c(C)c(cnc31)[C@H](CC(=O)O)c1ccc3c(c1)CN(CC3)C2=O [Compound 87]
[1]
  IC50: 0.8 nM and 0.9 nM
[2]; [8]
  EC50: 38.1 nM
[2]; [4]
  EC50: 40.5 nM
[3]; [5]
  EC50: 13 nM
[3]; [9]
  EC50: 18.2 nM

## Cc1c2cnc3c1nnn3CCCCCCc1c(F)c(F)c(c(F)c1F)C(=O)N1CCc3ccc(cc3C1)[C@@H]2[C@@H](C)C(=O)O [Compound 36]
[1]
  IC50: 12.7 nM and 2.5 nM
[2]; [8]
  EC50: 95.4 nM
[2]; [4]
  EC50: 184 nM
[3]; [5]
  EC50: 35 nM
[3]; [9]
  EC50: 36.7 nM

## CC(C)(C(=O)O)[C@@H]1c2ccc3c(c2)CN(CC3)C(=O)c2c(F)cc(cc2F)OCCCCCCn2nnc3cc1ccc32 [Compound 236]
[1]
  IC50: 51 nM and 44.4 nM and 44.6 nM
[2]; BEAS+, read-out: BEAS+ EC50
  EC50: 248 nM and 220 nM and 190 nM
[2]; [6]
  EC50: 286 nM
[3]; [7]
  EC50: 62.7 nM
[3]; [10]
  EC50: 50.3 nM and 82.1 nM and 84.7 nM

## O=C(O)CC1c2ccc(nc2)OCCCCOc2cnc(cn2)C(=O)N2CCc3ccc1cc3C2 (stereo not shown) [Compound 185]
[1]
  IC50: > 1000 nM
[2]; [6]
  EC50: > 10000 nM
[3]; [7]
  EC50: > 10000 nM

## Cc1c2ccc3c1nnn3CCCCCc1cc(F)c(c(F)c1)C(=O)N1CCc3ccc(cc3C1)C2CC(=O)O (stereo not shown) [Compound 263]
[1]
  IC50: 2.7 nM and 3 nM
[2]; [6]
  EC50: 20.4 nM
[3]; [7]
  EC50: 18.3 nM

## Cc1c2ccc3c1nnn3CCCCCCc1ccc(cc1)C(=O)N1CCc3ccc(cc3C1)[C@@H]2[C@H](C)C(=O)O (racemic) [Compound 200]
[1]
  IC50: 87.3 nM and 86.3 nM
[2]; BEAS+, read-out: BEAS+ EC50
  EC50: 9.3 nM
[2]; [6]
  EC50: 9.5 nM
[3]; [7]
  EC50: 3.4 nM
[3]; [10]
  EC50: 6.5 nM

## Cc1cc2cc3c1CCN(C3)C(=O)c1ccc(cc1)CCCCCCn1nnc3c(C)c(cnc31)[C@H]2CC(=O)O [Compound 93]
[1]
  IC50: 1.3 nM and 1.4 nM
[2]; [8]
  EC50: 17.1 nM
[2]; [4]
  EC50: 15.4 nM
[3]; [5]
  EC50: 3.4 nM
[3]; [9]
  EC50: 2.7 nM

## CC(C)(C(=O)O)C1c2ccc3c(c2)CN(CC3)C(=O)c2ccc(cc2F)OCCCCCCn2nnc3cc1ccc32 (stereo not shown) [Compound 288]
[1]
  IC50: 1.8 nM and 2.3 nM
[2]; [6]
  EC50: 34.3 nM
[3]; [7]
  EC50: 2.7 nM

## Cc1c2ccc3c1nnn3CCCCCCOc1ncc(cn1)C(=O)N1CCc3ccc(cc3C1)C2CC(=O)O (stereo not shown) [Compound 377]
[1]
  IC50: 5.7 nM and 5.8 nM
[2]; BEAS+, read-out: BEAS+ EC50
  EC50: 3210 nM
[2]; [6]
  EC50: 3170 nM
[3]; [7]
  EC50: 2940 nM
[3]; [10]
  EC50: 2650 nM

## C[C@@H](C(=O)O)[C@@H]1c2ccc3c(c2)CN(CC3)C(=O)c2c(F)cc(cc2F)OCCCCCCn2nnc3cc1ccc32 [Compound 256]
[1]
  IC50: 86.9 nM
[2]; [6]
  EC50: > 10000 nM
[3]; [7]
  EC50: > 10000 nM

## Cc1cc2cc3c1CCN(C3)C(=O)c1ccc(cc1)CCCCCCn1nnc3c(C)c(cnc31)[C@@H]2CC(=O)O [Compound 92]
[1]
  IC50: 4.6 nM and 3.9 nM
[2]; [8]
  EC50: 141 nM
[2]; [4]
  EC50: 115 nM
[3]; [5]
  EC50: 23.6 nM
[3]; [9]
  EC50: 24.8 nM
